Data on one compound can be found in patent US20080107623A1, “Inhibitors of Hepatitis C Virus” (Bristol-Myers Squibb Company, priority 2006, published 2008).

The target in assay [1] is T1, human neutrophil elastase (HNE) (Homo sapiens, UniProt P08246).
T1 construct: purchased Sigma or EMDbiosciences
T1 sequence (P08246 30-267): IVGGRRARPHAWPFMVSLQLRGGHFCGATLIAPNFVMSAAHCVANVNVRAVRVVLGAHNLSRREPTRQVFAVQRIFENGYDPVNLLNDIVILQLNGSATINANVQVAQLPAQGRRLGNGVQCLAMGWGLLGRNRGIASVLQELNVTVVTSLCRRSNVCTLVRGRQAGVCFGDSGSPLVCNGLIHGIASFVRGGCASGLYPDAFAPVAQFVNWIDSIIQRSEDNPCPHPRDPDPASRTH
The assay is described as follows: Specificity assay, elastase (pNA substrate). The settings on record: read-out: HLE activity in the specificity assay (IC50). The assay is classed as biochemical. Here is the method:
(§1) The specificities of compounds of the present disclosure were determined against a variety of serine proteases: human neutrophil elastase (HNE), porcine pancreatic elastase (PPE) and human pancreatic chymotrypsin and one cysteine protease: human liver cathepsin B. In all cases, a 96-well plate format protocol using colorimetric p-nitroaniline (pNA) substrate or fluorometric Amino-Methyl-Coumarin (AMC) substrate, specific for each enzyme was used as described previously (PCT Patent Application No. WO 00/09543) with some modifications. All enzymes were purchased from Sigma or EMDbiosciences while the substrates were from Bachem.
(§2) Each pNA assay included a 2 h enzyme-inhibitor pre-incubation at room temperature followed by addition of substrate and hydrolysis to ˜15% conversion as measured on a Spectramax Pro microplate reader. The cathepsin B assay was initiated by adding substrate to a 10 min enzyme-inhibitor pre-incubation at room temperature, and the assay plate measured immediately using the Cytofluor Series 4000. Compound concentrations varied from 100 to 0.4 μM depending on their potency.
(§3) 50 mM Tris(hydroxymethyl)aminomethane hydrochloride (Tris-HCl) pH 8, 0.5 M Sodium Sulfate (Na2SO4), 50 mM NaCl, 0.1 mM EDTA, 3% DMSO, 0.01% Tween-20 with: […]
(§4) The percentage of inhibition was calculated using the formula: [1−((UVinh−UVblank)/(UVctl−UVblank))]×100 […]

In assay [2] the test system is HCV replicon in HUH-7 cells. The assay is described as follows: HCV replicon FRET assay. The assay is classed as cell-based, HCV strain 1b. The note with it: Hepatitis C virus. The text has this: An HCV replicon whole cell system was established as described by Lohmann V, Korner F, Koch J, Herian U, Theilmann L, Bartenschlager R., Science 285(5424):110-3 (1999). This system enabled us to evaluate the effects of our HCV Protease compounds on HCV RNA replication. Briefly, using the HCV strain 1b sequence described in the Lohmann paper (Assession number: AJ238799), an HCV cDNA was synthesized by Operon Technologies, Inc. (Alameda, Calif.), and the full-length replicon was then assembled in plasmid pGem9zf(+) (Promega, Madison, Wis.) using standard molecular biology techniques. The replicon consists of (i) the HCV 5′ UTR fused to the first 12 amino acids of the capsid protein, (ii) the neomycin phosphotransferase gene (neo), (iii) the IRES from encephalomyocarditis virus (EMCV), and (iv) HCV NS3 to NS5B genes and the HCV 3′ UTR. Plasmid DNAs were linearized with ScaI and RNA transcripts were synthesized in vitro using the T7 MegaScript transcription kit (Ambion, Austin, Tex.) according to manufacturer's directions. In vitro transcripts of the cDNA were transfected into the human hepatoma cell line, HUH-7. […] Resulting cell lines were characterized for positive and negative strand RNA production and protein production over time.
The HCV replicon FRET assay was developed to monitor the inhibitory effects of compounds described in the disclosure on HCV viral replication. HUH-7 cells, constitutively expressing the HCV replicon, were grown in Dulbecco's Modified Eagle Media (DMEM) (Gibco-BRL) containing 10% Fetal calf serum (FCS) (Sigma) and 1 mg/ml G418 (Gibco-BRL). Cells were seeded the night before (1.5×10^4 cells/well) in 96-well tissue-culture sterile plates. Compound and no compound controls were prepared in DMEM containing 4% FCS, 1:100 Penicillin/Streptomysin (Gibco-BRL), 1:100 L-glutamine and 5% DMSO in the dilution plate (0.5% DMSO final concentration in the assay). Compound/DMSO mixes were added to the cells and incubated for 4 days at 37° C. After 4 days, cells were first assessed for cytotoxicity using alamar Blue (Trek Diagnotstic Systems) for a CC50 reading. The toxicity of compound (CC50) was determined by adding 1/10th volume of alamar Blue to the media incubating the cells. After 4 hours, the fluorescence signal from each well was read, with an excitation wavelength at 530 nm and an emission wavelength of 580 nm, using the Cytofluor Series 4000 (Perspective Biosystems). Plates were then rinsed thoroughly with Phosphate-Buffered Saline (PBS) (3 times 150 μl). The cells were lysed with 25 μl of a lysis assay reagent containing an HCV protease substrate (5× cell Luciferase cell culture lysis reagent (Promega #E153A) diluted to 1× with distilled water, NaCl added to 150 mM final, the FRET peptide substrate (as described for the enzyme assay above) diluted to 10 μM final from a 2 mM stock in 100% DMSO. […]. The plate was then placed into the Cytofluor 4000 instrument which had been set to 340 nm excitation/490 nm emission, automatic mode for 21 cycles and the plate read in a kinetic mode. EC50 determinations were carried out as described for the IC50 determinations.

In assay [3] the test system is human pancreatic chymotrypsin. Description: Specificity assay, chymotrypsin (pNA substrate). The assay is classed as biochemical. Here is the method:
as §1, §2, §3, §4

For the next assay, the target named is T2, human liver cathepsin B (Homo sapiens, UniProt P07858).
T2 construct: purchased Sigma or EMDbiosciences; host or cells: human liver (as named)
The assay is described as follows: Specificity assay, cathepsin B (AMC substrate). The assay is classed as biochemical. Here is the method:
as §1
Each pNA assay included a 2 h enzyme-inhibitor pre-incubation at room temperature followed by addition of substrate and hydrolysis to ˜15% conversion as measured on a Spectramax Pro microplate reader. The cathepsin B assay was initiated by adding substrate to a 10 min enzyme-inhibitor pre-incubation at room temperature, and the assay plate measured immediately using the Cytofluor Series 4000. Compound concentrations varied from 100 to 0.4 μM depending on their potency. […]
as §4

Read-outs that look alike come from different tables or passages of the source.

For the compound `COc1c(O[C@@H]2C[C@H]3C(=O)N[C@]4(C(=O)NS(=O)(=O)C5CC5)C[C@H]4/C=C\CCCCC[C@H](NC(=O)OC(C)(C)C)C(=O)N3C2)ccc2c(Cl)nccc12` [Compound 3], the figures for the IC50 (in assay [1]; in assay [3]; against human liver cathepsin B) were more than 25 µM, more than 100 µM and not below 100 µM, respectively. In addition, the EC50 in assay [2] (96 h, HUH-7 replicon cells, 4 days, read-out: EC50 in the replicon FRET assay) was 0.0146 µM; in assay [2] (Huh-7, HCV replicon, which replicon assay not stated, read-out: EC50 Activity Range) it was less than 0.1 µM.
